Assay results: US20200172473A1, “DUAL MODULATORS OF FARNESOID X RECEPTOR AND SOLUBLE EPOXIDE HYDROLASE” (JOHANN WOLFGANG GOETHE-UNIVERSITÄT FRANKFURT AM MAIN, priority 2017, published 2020)
Where two headings read alike, the source gives them in different places.

Assays:
[1] = target: T1, sEH (Mus musculus, UniProt P34914); assay: EET/DHET ratio in mouse plasma; assay type: in vivo; conditions: mice, 10 mg/kg p.o., 8 h post dose
T1 construct: pilot in vivo study of the compound in male wild-type C57BL6/J mice; from tissue; host or cells: male wild-type C57BL/6J mice, in vivo; read-out in plasma
T1 sequence (P34914 1-554): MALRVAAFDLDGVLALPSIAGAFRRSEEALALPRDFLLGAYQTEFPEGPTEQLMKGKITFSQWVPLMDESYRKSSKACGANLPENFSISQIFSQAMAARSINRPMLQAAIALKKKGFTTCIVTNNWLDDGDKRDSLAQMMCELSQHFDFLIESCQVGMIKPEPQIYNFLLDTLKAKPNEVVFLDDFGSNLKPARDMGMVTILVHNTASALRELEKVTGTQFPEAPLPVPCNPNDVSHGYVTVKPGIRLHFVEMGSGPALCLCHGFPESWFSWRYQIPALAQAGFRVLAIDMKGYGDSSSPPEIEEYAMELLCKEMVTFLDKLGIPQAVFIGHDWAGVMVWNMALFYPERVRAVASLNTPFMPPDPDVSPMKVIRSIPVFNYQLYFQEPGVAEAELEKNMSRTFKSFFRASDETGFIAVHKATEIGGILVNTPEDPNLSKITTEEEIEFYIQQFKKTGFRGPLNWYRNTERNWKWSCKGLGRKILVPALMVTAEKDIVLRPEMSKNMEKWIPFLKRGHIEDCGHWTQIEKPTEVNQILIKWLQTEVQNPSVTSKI
Experimental: To record a pharmacokinetic profile and to evaluate pharmacodynamic data concerning FXR activation and sEH inhibition in vivo, six mice received a single dose of 57 (p.o., 10 mg/kg body weight). Three additional animals served as vehicle control.
To evaluate pharmacodynamic effects of 57, mouse plasma was analyzed for EET/DHET ratio, and FXR target gene expression was determined in mouse livers 8 hours post application (FIG. 5B). […] Expression of the PPARγ target gene fatty acid transport protein (FATP) was not affected by 57 in vivo.
Blood and liver sampling: At six time points (15 min, 30 min, 60 min, 120 min, 240 min and 480 min after application of 57), blood (20 μl) of the six restrained and conscious mice was obtained from the lateral tail vein. For the last time-point (480 min), mice were anesthetized under isoflurane and blood (˜500 μl) was obtained by retro-orbital puncture. A part of the blood was centrifuged (6000 rpm, 10 min, +4° C.) to obtain plasma for quantification of EET/DHET ratio and stored at −80° C. until further evaluation. […]
EET/DHET ratio analysis from mouse plasma samples (Determination of Epoxyeicosatrienoicacids (EETs) and their metabolites Dihydroxyepoxyeicosatrienoicacids (DHETs) by LCMS/MS): 8.9-EET, 11.12-EET and their dehydro-metabolites content of the extracted samples were analyzed employing liquid chromatography tandem mass spectroscopy (LC-MS/MS). […]

[2] = tested on: FXR target genes
Experimental: Data was analyzed according to the 2^ΔΔCt method and all results were normalized to the values of the house-keeping gene glycerinaldehyde 3-phosphate dehydrogenase (GAPDH). Gene expression of vehicle treated control cells was defined as 100%.
Two micrograms of total RNA were extracted from HepG2 cells by the Total RNA Mini Kit (R6834-02, Omega Bio-Tek, Inc., Norcross, Ga., USA). […] FXR target gene expression was evaluated by quantitative real time PCR analysis with a StepOnePlus™ System (Life Technologies, Carlsbad, Calif., USA) using PowerSYBRGreen (Life Technologies; 12.5 μL per well). The primers are listed in the supporting information. Each sample was set up in duplicates and repeated in at least three independent experiments. The expression was quantified by the comparative ΔΔCt method and glycerinaldehyde 3-phosphate dehydrogenase (GAPDH) served as reference gene.

CC(C)(C)c1ccc(C(=O)NCc2ccc(NS(C)(=O)=O)cc2Cl)cc1 [compound 57, 4-(tert-Butyl)-N-(2-chloro-4-(methylsulfonamido)benzyl)benzamide]
11,12-EET/11,12-DHET ratio in plasma ([1]; vehicle 0.15±0.01): 0.25±0.03 | 8,9-EET/8,9-DHET ratio in plasma ([1]; vehicle 0.40±0.03): 0.63±0.03 | BSEP mRNA expression compared to vehicle set as 100% ([2]; HepG2, 0.1 μM, 8 or 16 h): 216±18% | FABP1 mRNA expression compared to vehicle set as 100% ([2]; HepG2, 0.1 μM, 8 or 16 h): 183±34% | FAS mRNA expression compared to vehicle set as 100% ([2]; HepG2, 0.1 μM, 8 or 16 h): 22±8% | FGF19 mRNA expression compared to vehicle set as 100% ([2]; HepG2, 0.1 μM, 8 or 16 h): 309±101% | PDK4 mRNA expression compared to vehicle set as 100% ([2]; HepG2, 0.1 μM, 8 or 16 h): 255±54% | PPARα mRNA expression compared to vehicle set as 100% ([2]; HepG2, 0.1 μM, 8 or 16 h): 170±11% | SHP mRNA expression compared to vehicle set as 100% ([2]; HepG2, 0.1 μM, 8 or 16 h): 242±61% | SREBP1c mRNA expression compared to vehicle set as 100% ([2]; HepG2, 0.1 μM, 8 or 16 h): 49±17% | BSEP mRNA expression compared to vehicle set as 100% ([2]; HepG2, 1 μM, 8 or 16 h): 222±20% | FABP1 mRNA expression compared to vehicle set as 100% ([2]; HepG2, 1 μM, 8 or 16 h): 194±42% | FGF19 mRNA expression compared to vehicle set as 100% ([2]; HepG2, 1 μM, 8 or 16 h): 325±77% | PDK4 mRNA expression compared to vehicle set as 100% ([2]; HepG2, 1 μM, 8 or 16 h): 226±57% | PPARα mRNA expression compared to vehicle set as 100% ([2]; HepG2, 1 μM, 8 or 16 h): 211±10% | SHP mRNA expression compared to vehicle set as 100% ([2]; HepG2, 1 μM, 8 or 16 h): 317±78% | amplitude of induction of SHP, PPARα, FGF19, PDK4 and FABP1 relative to CDCA (1b) ([2]; HepG2, % of CDCA (1b) at 50 μM): 50-80%
